Experimental data from PMC6079084, “Capacity for instantaneous catabolism of preferred and non-preferred carbon sources in Escherichia coli and Bacillus subtilis” (Scientific Reports, 2018).

B1: PycA (Bacillus subtilis subsp. subtilis str. 168) (protein)
chain: SQQSIQKVLVANRGEIAIRIFRACTELNIRTVAVYSKEDSGSYHRYKADEAYLVGEGKKPIDAYLDIEGIIDIAKRNKVDAIHPGYGFLSENIHFARRCEEEGIVFIGPKSEHLDMFGDKVKAREQAEKAGIPVIPGSDGPAETLEAVEQFGQANGYPIIIKASLGGGGRGMRIVRSESEVKEAYERAKSEAKAAFGNDEVYVEKLIENPKHIEVQVIGDKQGNVVHLFERDCSVQRRHQKVIEVAPSVSLSPELRDQICEAAVALAKNVNYINAGTVEFLVANNEFYFIEVNPRVQVEHTITEMITGVDIVQTQILVAQGHSLHSKKVNIPEQKDIFTIGYAIQSRVTTEDPQNDFMPDTGKIMAYRSGGGFGVRLDTGNSFQGAVITPYYDSLLVKLSTWALTFEQAAAKMVRNLQEFRIRGIKTNIPFLENVAKHEKFLTGQYDTSFIDTTPELFNFPKQKDRGTKMLTYIGNVTVNGFPGIGKKEKPAFDKPLGVKVDVDQQPARGTKQILDEKGAEGLANWVKEQKSVLLTDTTFRDAHQSLLATRIRSHDLKKIANPTAALWPELFSMEMWGGATFDVAYRFLKEDPWKRLEDLRKEVPNTLFQMLLRSSNAVGYTNYPDNVIKEFVKQSAQSGIDVFRIFDSLNWVKGMTLAIDAVRDTGKVAEAAICYTGDILDKNRTKYDLAYYTSMAKELEAAGAHILGIKDMAGLLKPQAAYELVSALKETIDIPVHLHTHDTSGNGIYMYAKAVEAGVDIIDVAVSSMAGLTSQPSASGFYHAMEGNDRRPEMNVQGVELLSQYWESVRKYYSEFESGMKSPHTEIYEHEMPGGQYSNLQQQAKGVGLGDRWNEVKEMYRRVNDMFGDIVKVTPSSKVVGDMALYMVQNNLTEKDVYEKGESLDFPDSVVELFKGNIGQPHGGFPEKLQKLILKGQEPITVRPGELLEPVSFEAIKQEFKEQHNLEISDQDAVAYALYPKVFTDYVKTTESYGDISVLDTPTFFYGMTLGEEIEVEIERGKTLIVKLISIGEPQPDATRVVYFELNGQPREVVIKDESIKSSVQERLKADRTNPSHIAASMPGTVIKVLAEAGTKVNKGDHLMINEAMKMETTVQAPFSGTIKQVHVKNGEPIQTGDLLLEIEKA
notes: full-length, N-terminal His6-Gly3 tag (from primer), recombinant in E. coli BW25113, pTrc99KK, Ni-NTA

Assays:
PfkA = target: T1, PfkA (Bacillus subtilis, UniProt O34529); test: coupled spectrophotometric assay, NADH at […] nm; assay type: biochemical
T1 construct: full-length, N-terminal His6-Gly3 tag (from primer), recombinant in E. coli BW25113, pTrc99KK, Ni-NTA
T1 sequence (O34529 2-319): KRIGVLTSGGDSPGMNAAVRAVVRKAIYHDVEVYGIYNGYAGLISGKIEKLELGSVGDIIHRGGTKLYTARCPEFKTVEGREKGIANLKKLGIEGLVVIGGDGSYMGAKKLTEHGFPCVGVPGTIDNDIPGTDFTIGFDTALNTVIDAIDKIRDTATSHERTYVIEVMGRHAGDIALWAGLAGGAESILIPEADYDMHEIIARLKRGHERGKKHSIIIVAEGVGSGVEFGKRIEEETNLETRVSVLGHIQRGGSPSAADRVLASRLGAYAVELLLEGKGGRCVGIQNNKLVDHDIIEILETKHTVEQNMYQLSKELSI

purified protein = substrate: CC(=O)C(=O)O; test: purified protein; assay type: biochemical, Bacillus subtilis; conditions: 1 mM ATP, 0.05 mM acetyl-CoA, 15 mM KHCO3, 7 mM MgSO4, 135 mM TEA pH 8, room temperature, pyruvate 0.04-5.0 mM

Molecule	Ki (PfkA) [µM]	Km (purified protein) [µM]
C=C(OP(=O)(O)O)C(=O)O [PEP, phosphoenolpyruvate]	40	–
B1	–	100
